Laboratory results: article PMC3702540, “Sphingosine Kinase Activity Is Not Required for Tumor Cell Viability” (PLoS ONE, 2013)
pIC50: −log10 of the molar value.

Columns and labels:
SPHK1 = tested on: SPHK1; design: method as in PMID 22397330; settings: cited from earlier work
hSPHK2 = hSPHK2 (Homo sapiens, UniProt Q9NRA0); assay: Biochemical SPHK activity, 33P incorporation into S1P; settings: biochemical assay
Experimental: (§1) A biochemical assay was used to measure the incorporation of ^33P-radiolabeled phosphate from ATP into S1P. Reactions were performed in 96-well polystyrene high-binding microplates (Greiner) in a volume of 60 µl. Reaction mixtures contained 50 mM HEPES (pH 7.5), 3 mM MgCl2, 10 mM NaF, 1 µM ATP, 0.75 µCi of [γ-33P]ATP, 1.11 µM sphingosine (Biomol International) in the presence of either 0.005% Triton X-100 (SPHK1) or 0.0025% NP-40 (SPHK2). Enzymatic reactions were initiated by adding 30 nM of sphingosine kinase in the presence of 2 mM dithiothreitol (DTT). Reactions were terminated after 50 min at 30°C by adding 30 µL 7.5 M Guanidine HCl. Plates were then washed three times with 200 µl PBS before 50 ul of scintillate was added to each well. The assay was quantified by counting in a Packard TopCount (Perkin Elmer).

hSPHK1 = hSPHK1 (Homo sapiens, UniProt Q9NYA1); assay: as above; settings: biochemical assay
Sequence of hSPHK1 (Q9NYA1 whole entry): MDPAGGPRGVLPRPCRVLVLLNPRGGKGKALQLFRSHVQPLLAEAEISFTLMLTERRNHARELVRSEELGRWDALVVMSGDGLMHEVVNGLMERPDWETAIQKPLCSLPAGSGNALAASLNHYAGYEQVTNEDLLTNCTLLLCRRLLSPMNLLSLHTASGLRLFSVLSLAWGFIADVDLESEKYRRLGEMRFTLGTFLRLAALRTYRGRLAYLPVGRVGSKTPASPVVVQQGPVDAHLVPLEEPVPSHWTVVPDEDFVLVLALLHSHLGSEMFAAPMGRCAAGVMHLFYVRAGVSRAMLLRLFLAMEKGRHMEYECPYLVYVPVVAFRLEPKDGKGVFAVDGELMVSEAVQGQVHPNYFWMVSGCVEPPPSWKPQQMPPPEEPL
Experimental: as §1

panel of cell lines = assay: 72 h viability assays, summary for panel of cell lines; format: cell-based; settings: regular culture conditions and serum starvation
Experimental: (§2) Cell lines were obtained from ATCC and cultured in Dulbecco’s Modification of Eagle’s Medium (Corning® cellgro 10-013) supplemented with 5% FBS and 1% P/S or in Minimum Essential Medium (Corning® cellgro® 10-010) supplemented with 10% FBS, 0.1 mM MEM Nonessential Amino Acids (Corning® cellgro 25-025), 1.0 mM sodium pyruvate (Corning® cellgro 25-000) and 1% P/S. Cells were seeded at a density of 5000 cells per well in 96-well cell culture plates on day1. Media was changed with or without serum and dosed with compound on Day 2. On day5 the Cell Viability assay was performed with CellTiter-Glo® Reagent (Promega) according to the manufacturers instruction.
(§3) S1P has been reported to be important for tumor cell viability, and reduction of intracellular S1P levels has been associated with greater cellular sensitivity to pro-apoptotic stress, [7]. […] A panel of cell lines likely to be sensitive to SPHK inhibition was assembled based on literature reports, internal siRNA data and SPHK expression levels, [9], [21]. Viability was monitored after 72 h of SPHK inhibition under regular culture conditions to assess direct effects on cell viability, and under serum starvation to assess the effects of SPHK inhibition under stress conditions.

LOX = assay: 72 h viability assay (CellTiter-Glo); format: cell-based, human; settings: LOX (Skin), inflection point of titration curve
Experimental: as §2, §3
(§4) The IC50s reflect the inflection point of the titration curve.

HA-1 = assay: 72 h viability assay (CellTiter-Glo); format: cell-based; settings: read-out: IC50 viability
Experimental: as §2
(§5) S1P has been reported to be important for tumor cell viability, and reduction of intracellular S1P levels has been associated with greater cellular sensitivity to pro-apoptotic stress, [7]. Compounds A and B were used to test this hypothesis experimentally. A panel of cell lines likely to be sensitive to SPHK inhibition was assembled based on literature reports, internal siRNA data and SPHK expression levels, [9], [21]. Viability was monitored after 72 h of SPHK inhibition under regular culture conditions to assess direct effects on cell viability, and under serum starvation to assess the effects of SPHK inhibition under stress conditions. […] Cell death was only observed at higher concentrations (3 to 30 µM). […] Like all substrate competitive SPHK inhibitors, these compounds have a polar headgroup and a lipophilic tail, and can act as detergents at higher concentrations. […]

UACC257 = assay: 72 h viability assay (CellTiter-Glo); format: cell-based; settings: Homo sapiens, UACC-257, UACC257 (Skin), inflection point of titration curve
Experimental: as §2, §5

Saos2 = assay: 72 h viability assay (CellTiter-Glo); format: cell-based; settings: Homo sapiens, SAOS-2, Saos2 (Bone), inflection point of titration curve
Experimental: as §2, §5

HeLa = assay: 72 h viability assay (CellTiter-Glo); format: cell-based; settings: Homo sapiens, HeLa (Cervix), inflection point of titration curve
Experimental: as §2, §5

WM266-4 = assay: 72 h viability assay (CellTiter-Glo); format: cell-based; settings: Homo sapiens, WM 266-4, WM266-4 (Skin), inflection point of titration curve
Experimental: as §2, §5

HS294T = assay: 72 h viability assay (CellTiter-Glo); format: cell-based; settings: Homo sapiens, Hs 294T, HS294T (Skin), inflection point of titration curve
Experimental: as §2, §5

A375 = assay: 72 h viability assay (CellTiter-Glo); format: cell-based; settings: Homo sapiens, A-375, A375 (Skin), inflection point of titration curve
Experimental: as §2, §5

Colo 320 = assay: 72 h viability assay (CellTiter-Glo); format: cell-based; settings: Homo sapiens, Colo 320 (Colon), inflection point of titration curve
Experimental: as §2, §5

LN229 = assay: 72 h viability assay (CellTiter-Glo); format: cell-based; settings: Homo sapiens, LN-229, LN229 (Brain), inflection point of titration curve
Experimental: as §2, §5

LN18 = assay: 72 h viability assay (CellTiter-Glo); format: cell-based; settings: Homo sapiens, LN-18, LN18 (Brain), inflection point of titration curve
Experimental: as §2, §5

LN229 cells = assay: 15 day colony formation assay; format: cell-based, human; settings: concentrations up to 1 µM
Experimental: LN-229 cells were cultured in Dulbecco’s Modification of Eagle’s Medium (Corning® cellgro 10-013) supplement with 5%FBS and 1% P/S. On Day 1 cells were seeded on 6-well tissue culture plates at density of 800 cells per well. On Day 2 compounds were added and cells were incubated for 15 days at 37°C. Cells were then stained with Crystal violet.
The long term effect of SPHK inhibition on cell viability was studied in the glioblastoma cell line LN229. […] Concentrations of more than 3 µM led to immediate cell death due to cell lysis and prevented the formation of colonies (figure 5).
Figure 5 Effects of SPHK inhibition in colony formation assays. LN229 cells were seeded at a density of 800 cells/well in a six well plate in the presence of the indicated concentrations of SPHK inhibitor. After 15 days, cells were fixed and stained with crystal violet.

human cell lines = assay: Cellular SPHK activity, C17 S1P levels, summary for human cell lines; format: cell-based
mSPHK2 = mSPHK2 (Mus musculus, UniProt Q9JIA7); assay: Biochemical SPHK activity, 33P incorporation into S1P; design: species or system murine; settings: biochemical assay
Sequence of mSPHK2 (Q9JIA7 whole entry): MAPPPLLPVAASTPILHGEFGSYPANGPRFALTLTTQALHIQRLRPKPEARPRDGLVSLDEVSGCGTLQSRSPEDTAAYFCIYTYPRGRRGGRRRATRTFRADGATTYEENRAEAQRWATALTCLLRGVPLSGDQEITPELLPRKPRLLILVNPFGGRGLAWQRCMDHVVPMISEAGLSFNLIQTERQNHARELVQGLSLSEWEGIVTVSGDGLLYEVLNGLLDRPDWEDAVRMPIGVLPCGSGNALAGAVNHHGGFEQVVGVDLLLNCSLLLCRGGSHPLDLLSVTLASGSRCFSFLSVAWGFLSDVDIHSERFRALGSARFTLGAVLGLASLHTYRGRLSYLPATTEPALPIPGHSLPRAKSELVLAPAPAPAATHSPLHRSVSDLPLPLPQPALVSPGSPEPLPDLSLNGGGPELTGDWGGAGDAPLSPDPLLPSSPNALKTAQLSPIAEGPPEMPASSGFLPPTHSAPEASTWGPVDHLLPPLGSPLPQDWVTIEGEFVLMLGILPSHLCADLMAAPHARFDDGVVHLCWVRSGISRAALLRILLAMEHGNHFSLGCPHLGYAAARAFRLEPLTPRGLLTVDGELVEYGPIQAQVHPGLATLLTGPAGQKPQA
Experimental: as §1

mSPHK1 = mSPHK1 (Mus musculus, UniProt Q8CI15); assay: as above; design: species or system murine; settings: biochemical assay
Sequence of mSPHK1 (Q8CI15 whole entry): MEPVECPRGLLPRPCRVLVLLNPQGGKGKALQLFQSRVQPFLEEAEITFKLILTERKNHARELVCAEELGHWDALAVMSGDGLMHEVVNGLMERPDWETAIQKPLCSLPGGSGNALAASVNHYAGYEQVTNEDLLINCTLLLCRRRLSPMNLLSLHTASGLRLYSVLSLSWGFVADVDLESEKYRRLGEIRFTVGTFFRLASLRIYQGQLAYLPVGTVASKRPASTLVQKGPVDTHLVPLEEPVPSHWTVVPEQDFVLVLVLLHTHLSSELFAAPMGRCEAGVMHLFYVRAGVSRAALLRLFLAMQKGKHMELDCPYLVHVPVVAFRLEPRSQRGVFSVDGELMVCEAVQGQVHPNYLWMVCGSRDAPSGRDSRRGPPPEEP
Experimental: as §1

[1] = tested on: human melanoma cell line WM266.4; assay: Cellular SPHK activity, C17 S1P levels; settings: WM 266-4, 2 h, read-out: IC50, inhibition of cellular SPHK activity (C17 S1P)
Experimental: (§9) Frozen cell pellets (1×10^6 cells) were thawed and 75 µl of methanol was added. The samples were transferred to an un-skirted 96 well PCR plate after which they were mixed to a homogeneous solution. The plate was then sealed and pulsed for 6 seconds per well (E200-S0%250 mV500 setting) on a Covaris Adaptive Focused Acoustic (AFA) cell disruptor (Covaris, Woburn, MA). 130 µl of Dichloromethane was then added to each well after which plates were incubated at room temperature for 2 hours. Post incubation, 52 µl of ddH2O was added to induce phase separation. […] 45 µl of this final sample was transferred to a 384 well plate and analyzed on a RapidfireTM (Biocius, Wakefield, MA) ultra-high throughput chromatography system interfaced with a TSQ Vantage triple stage quadrupole mass spectrometer (Thermo Scientific, Waltham, MA). […] After an aqueous wash ((80∶20) Methanol/ddH2O containing 75 mM NH4OH and 0.1% formic acid) to remove the S1P extraction components that interfere with mass spectrometry, C17-S1P was eluted ((99∶1) Methanol/ddH2O containing 0.1% formic acid) and analyzed by inline triple stage quadrupole mass spectrometry. […] C17-S1P was monitored using a selective reaction monitoring protocol which detected the loss of a phosphate molecule from the parent ion C17-S1P. […]
(§10) Two hours after addition of C17 sphingosine, cells were lysed and levels of C17 S1P were determined.

[2] = tested on: MDA-MB-231 xenograft tumors; assay: MDA-MB-231 tumor xenograft model; format: in vivo; settings: athymic nude mice
Experimental: MDA-MB-231 cells were purchased from the American Type Culture Collection (ATCC) and maintained in DMEM high glucose with 10% fetal bovine serum (FBS) and 1x-L-glutamine. Mice were injected subcutaneously with 5×10^6 cells in 30% Matrigel (BD Biosciences, San Jose, CA). […] Vehicle and compound A were administered by oral gavage daily. Taxotere was administered by intraperitoneal injection once a week. Tumor dimensions were assessed twice weekly with a Pro-Max electronic digital caliper (Sylvac, Crissier, Switzerland) and tumor volume was calculated using the formula: length x width x height and expressed as mm^3. Data are expressed as mean +/− SE (n = 7–10). Repeated-measures analysis of variance (RMANOVA) followed by Dunnett’s post hoc test for multiple comparisons was used to evaluate statistical significance of observed differences. Body weight was recorded twice weekly as an index of toxicity.
Here, athymic nude mice were implanted s.c. with human MDA-MD-231 breast cancer cells. Dosing was initiated 18 days later when the tumors had reached ∼ 200 mm^3.
Female athymic nude mice were injected with 5×10^6 MDA-MB-231 cells on day 0. […] (n = 7–10 per group); bars, SE. *, P<0.0001, compared to vehicle.

plasma levels of S1P = assay: Pharmacodynamic assay, plasma S1P levels in mice; format: in vivo
Experimental: (§6) For S1P measurements, plasma was extracted with 0.1% formic acid/methanol containing an internal standard (C17-S1P) and subjected to LC-MS/MS analysis. […] The method provided linear response over a concentration range of 1 to 2000 ng/ml. A separate aliquot of plasma was extracted with acetonitrile containing an internal standard (structural analog) and subjected to reversed-phase liquid chromatographic using a Shiseido UG Capcell C18, 50×2 mm analytical column (Phenomenex). MS/MS analysis was conducted on a API4000 with an electrospray interface using multiple reaction monitoring (MRM) in the positive ionization mode.
(§7) Female athymic nude mice were assigned to one of fifteen treatment groups. […] At various times after dosing (2 to 24 h), mice were sacrificed and plasma collected to determine S1P levels and compound concentrations. Data are mean ± SE (n = 5). […] S1P and drug concentration were determined by LC-MS/MS.
(§8) The inhibition of sphingosine kinase was evaluated in a pharmacodynamic assay. […] At 2, 7 and 24 hours post dose, plasma was collected and levels of S1P and plasma drug concentration were determined.

[3] = tested on: murine melanoma cell line B16F10; assay: Cellular SPHK activity, C17 S1P levels; settings: Mus musculus, B16-F10, 2 h, read-out: IC50, inhibition of cellular SPHK activity (C17 S1P)
Experimental: as §9, §10

[4] = Compound plasma concentration in mice after oral gavage; format: in vivo
Experimental: as §6, §7, §8

[5] = tested on: human breast cancer cell line MDA-MB-231; assay: Cellular SPHK activity, C17 S1P levels; settings: MDA-MB-231, 2 h, read-out: IC50, inhibition of cellular SPHK activity (C17 S1P)
Experimental: as §9, §10

[6] = tested on: human melanoma cell line LOX; assay: Endogenous S1P levels 24 h after compound treatment; format: cell-based; settings: 24 h treatment, read-out: IC50, endogenous S1P production (LOX)
Description: Several SPHK inhibitors have been reported in the literature, and have been utilized to support the rheostat theory.
as §4

Sequence of hSPHK2 (Q9NRA0 whole entry): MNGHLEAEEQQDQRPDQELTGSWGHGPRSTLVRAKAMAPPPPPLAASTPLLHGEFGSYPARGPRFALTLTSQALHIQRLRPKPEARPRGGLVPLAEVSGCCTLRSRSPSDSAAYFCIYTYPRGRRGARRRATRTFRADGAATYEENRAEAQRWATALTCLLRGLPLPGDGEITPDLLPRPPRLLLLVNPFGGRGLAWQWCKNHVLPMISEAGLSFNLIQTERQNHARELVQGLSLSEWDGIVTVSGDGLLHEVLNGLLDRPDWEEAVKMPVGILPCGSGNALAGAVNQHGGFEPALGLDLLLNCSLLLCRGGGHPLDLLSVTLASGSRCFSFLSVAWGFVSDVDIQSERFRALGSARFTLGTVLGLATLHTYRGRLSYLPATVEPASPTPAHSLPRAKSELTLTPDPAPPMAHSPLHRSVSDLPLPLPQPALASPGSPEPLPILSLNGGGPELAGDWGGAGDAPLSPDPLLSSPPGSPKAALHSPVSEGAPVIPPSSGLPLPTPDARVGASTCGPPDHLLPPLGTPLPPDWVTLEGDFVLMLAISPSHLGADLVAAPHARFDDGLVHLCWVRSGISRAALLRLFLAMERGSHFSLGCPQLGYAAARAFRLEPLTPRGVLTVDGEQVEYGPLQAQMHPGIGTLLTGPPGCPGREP

Row | Compound | pIC50 (hSPHK2) | effect on viability at 1 µM compound (panel of cell lines) | pIC50 (LOX; Homo sapiens) | pIC50 (HA-1) | pIC50 (UACC257) | pIC50 (Saos2) | pIC50 (HeLa) | pIC50 (WM266-4) | pIC50 (HS294T) | pIC50 (A375) | pIC50 (Colo 320) | pIC50 (LN229) | pIC50 (LN18) | viability in 72 h proliferation and 15 day colony formation assays (LN229 cells) | IC50s, inhibition of SPHK activity in human cell lines (human cell lines) | pIC50 (mSPHK2) | pIC50 (mSPHK1) | pIC50 [1] | also measured
1 | CCCCCc1ccc(/C=C/[C@H](O)[C@@H](CO)NC)cc1 [SK1-I] | – | – | – | – | – | – | – | – | – | – | – | – | – | – | – | – | – | – | biochemical IC50 (SPHK1): in the micromolar range
2 | OC[C@H]1C[C@H](O)CN1CCCc1ccc(Nc2nc(-c3cccc(C(F)(F)F)c3)cs2)cc1 [Compound B] | 7.22 | did not result in reduced viability | 5.21 | 4.81 | 5.19 | 4.87 | 4.84 | 4.88 | 5.00 | 4.76 | 5.03 | 5.06 | 5.26 | viability was unchanged | double digit nanomolar range | < 5.30 | 7.26 | 7.44 | pIC50 (hSPHK1): 8.10
3 | OC[C@H]1C[C@@H](O)CCN1CCc1ccc(Nc2nc(-c3ccc(C(F)(F)F)cc3)cs2)cc1 [Compound A] | – | did not result in reduced viability | 5.40 | 5.20 | 5.36 | 5.15 | 5.19 | 5.22 | 5.22 | 5.08 | 5.29 | 5.32 | 5.39 | viability was unchanged | double digit nanomolar range | – | 7.19 | 7.20 | effect on tumor growth in vivo ([2]; 300 mg/kg daily by oral gavage from day 18): did not lead to significant inhibition of tumor growth; mice in which compound was not tolerated (deaths) ([2]; 300 mg/kg daily by oral gavage, cause of death unknown): 3 out of the 10; reduction of host / plasma S1P levels (plasma levels of S1P; 300 mg/kg oral): more than 70%; maximum inhibition of plasma levels of S1P (plasma levels of S1P; oral gavage 10-300 mg/kg, at plasma exposure of 0.38 µM): 72%; pIC50 [3]: 6.60; oral bioavailability [4]: orally bioavailable; plasma exposure at maximum inhibition of plasma S1P [4]: 0.38 µM; pIC50 [5]: 7.05
4 | Oc1ccc(Nc2nc(-c3ccc(Cl)cc3)cs2)cc1 [SKII, reference compound] | 4.89 | – | – | – | – | – | – | – | – | – | – | – | – | – | – | < 5.00 | < 5.00 | – | pIC50 (LOX): 4.95; IC50 (mSPHK1) (mSPHK1): too low to be detected; pIC50 [6]: 5.12
